Experimental data: ChEMBL document CHEMBL4507316 (2021)
Active and inactive are the calls of the source. No cut-off for these calls is given here.

Columns and labels:
[1] = molecular target: Calcium/calmodulin-dependent protein kinase type II subunit delta (Homo sapiens) (UniProt Q13557); test: CAMK2D ProQinase selectivity panel; settings: Compound concentration 1.0 uM
[2] = molecular target: DNA-dependent protein kinase catalytic subunit (Homo sapiens) (UniProt P78527); test: DNA-PK ProQinase selectivity panel; settings: Compound concentration 1.0 uM
[3] = molecular target: Interleukin-1 receptor-associated kinase 1 (Homo sapiens) (UniProt P51617); test: IRAK1 ProQinase selectivity panel; settings: Compound concentration 1.0 uM
[4] = molecular target: Calcium/calmodulin-dependent protein kinase type IV (Homo sapiens) (UniProt Q16566); test: CAMK4 ProQinase selectivity panel; settings: Compound concentration 1.0 uM
[5] = test system: Epidermal growth factor receptor (Homo sapiens), P00533 [G719S]; test: EGF-R G719S ProQinase selectivity panel; settings: Compound concentration 1.0 uM
[6] = molecular target: Serine/threonine-protein kinase NLK (Homo sapiens) (UniProt Q9UBE8); test: NLK ProQinase selectivity panel; settings: Compound concentration 1.0 uM
[7] = molecular target: Homeodomain-interacting protein kinase 3 (Homo sapiens) (UniProt Q9H422); test: HIPK3 ProQinase selectivity panel; settings: Compound concentration 1.0 uM
[8] = molecular target: Heat shock protein beta-1 (Homo sapiens, UniProt P04792); test: Inhibition of HSP27 (Ser82) (Western blot)
[9] = molecular target: 5-hydroxytryptamine receptor 2C (Homo sapiens) (UniProt P28335); settings: Compound concentration 10.0 uM
[10] = molecular target: Megakaryocyte-associated tyrosine-protein kinase (Homo sapiens) (UniProt P42679); test: MATK ProQinase selectivity panel; settings: Compound concentration 1.0 uM
[11] = molecular target: Calcium/calmodulin-dependent protein kinase type 1D (Homo sapiens) (UniProt Q8IU85); test: CAMK1D ProQinase selectivity panel; settings: Compound concentration 1.0 uM
[12] = molecular target: G protein-coupled receptor kinase 4 (Homo sapiens) (UniProt P32298); test: GRK4 ProQinase selectivity panel; settings: Compound concentration 1.0 uM
[13] = test system: Receptor-type tyrosine-protein kinase FLT3 (Homo sapiens), P36888 [D835Y]; test: FLT3 D835Y ProQinase selectivity panel; settings: Compound concentration 1.0 uM
[14] = molecular target: SRSF protein kinase 3 (Homo sapiens) (UniProt Q9UPE1); test: STK23 ProQinase selectivity panel; settings: Compound concentration 1.0 uM
[15] = molecular target: Serine/threonine-protein kinase MARK1 (Homo sapiens) (UniProt Q9P0L2); test: MARK1 ProQinase selectivity panel; settings: Compound concentration 1.0 uM
[16] = test system: Tyrosine-protein kinase ABL1 (Homo sapiens), P00519 [Y253F]; test: ABL1 Y253F ProQinase selectivity panel; settings: Compound concentration 1.0 uM
[17] = molecular target: Dual specificity tyrosine-phosphorylation-regulated kinase 4 (Homo sapiens) (UniProt Q9NR20); test: DYRK4 ProQinase selectivity panel; settings: Compound concentration 1.0 uM
[18] = molecular target: G protein-coupled receptor kinase 6 (Homo sapiens) (UniProt P43250); test: GRK6 ProQinase selectivity panel; settings: Compound concentration 1.0 uM
[19] = molecular target: Mitogen-activated protein kinase kinase kinase kinase 5 (Homo sapiens) (UniProt Q9Y4K4); test: MAP4K5 ProQinase selectivity panel; settings: Compound concentration 1.0 uM
[20] = test system: Tyrosine-protein kinase ABL1 (Homo sapiens), P00519 [E255K]; test: ABL1 E255K ProQinase selectivity panel; settings: Compound concentration 1.0 uM
[21] = molecular target: Eukaryotic elongation factor 2 kinase (Homo sapiens) (UniProt O00418); test: EEF2K ProQinase selectivity panel; settings: Compound concentration 1.0 uM
[22] = molecular target: Fibroblast growth factor receptor 2 (Homo sapiens) (UniProt P21802); test: FGF-R2 ProQinase selectivity panel; settings: Compound concentration 1.0 uM
[23] = molecular target: D(1A) dopamine receptor (Homo sapiens) (UniProt P21728); settings: Compound concentration 10.0 uM
[24] = test system: Hepatocyte growth factor receptor (Homo sapiens), P08581 [Y1230C]; test: MET Y1230C ProQinase selectivity panel; settings: Compound concentration 1.0 uM
[25] = molecular target: Aurora kinase C (Homo sapiens) (UniProt Q9UQB9); test: Aurora-C ProQinase selectivity panel; settings: Compound concentration 1.0 uM
[26] = molecular target: Muscle, skeletal receptor tyrosine-protein kinase (Homo sapiens) (UniProt O15146); test: MUSK ProQinase selectivity panel; settings: Compound concentration 1.0 uM
[27] = molecular target: Casein kinase I isoform gamma-3 (Homo sapiens) (UniProt Q9Y6M4); test: CK1-gamma3 ProQinase selectivity panel; settings: Compound concentration 1.0 uM
[28] = molecular target: Aurora kinase B (Homo sapiens) (UniProt Q96GD4); test: Aurora-B ProQinase selectivity panel; settings: Compound concentration 1.0 uM
[29] = molecular target: Proto-oncogene tyrosine-protein kinase receptor Ret (Homo sapiens) (UniProt P07949); test: RET wt ProQinase selectivity panel; settings: Compound concentration 1.0 uM
[30] = molecular target: CDK1/Cyclin E (Homo sapiens) (UniProt P06493+P24864); test: CDK1/CycE ProQinase selectivity panel; format: protein-complex assay; settings: Compound concentration 1.0 uM
[31] = molecular target: Tyrosine-protein kinase Fer (Homo sapiens) (UniProt P16591); test: FER ProQinase selectivity panel; settings: Compound concentration 1.0 uM
[32] = molecular target: Testis-specific serine/threonine-protein kinase 2 (Homo sapiens) (UniProt Q96PF2); test: TSK2 ProQinase selectivity panel; settings: Compound concentration 1.0 uM
[33] = molecular target: Inhibitor of nuclear factor kappa-B kinase subunit beta (Homo sapiens) (UniProt O14920); test: IKK-beta ProQinase selectivity panel; settings: Compound concentration 1.0 uM
[34] = molecular target: Serine/threonine-protein kinase BRSK1 (Homo sapiens) (UniProt Q8TDC3); test: BRSK1 ProQinase selectivity panel; settings: Compound concentration 1.0 uM
[35] = molecular target: Eukaryotic translation initiation factor 2-alpha kinase 1 (Homo sapiens) (UniProt Q9BQI3); test: HRI ProQinase selectivity panel; settings: Compound concentration 1.0 uM
[36] = molecular target: Serine/threonine-protein kinase Nek1 (Homo sapiens) (UniProt Q96PY6); test: NEK1 ProQinase selectivity panel; settings: Compound concentration 1.0 uM
[37] = molecular target: Serine/threonine-protein kinase PLK4 (Homo sapiens) (UniProt O00444); test: SAK ProQinase selectivity panel; settings: Compound concentration 1.0 uM
[38] = molecular target: Serine/threonine-protein kinase DCLK2 (Homo sapiens) (UniProt Q8N568); test: DCAMKL2 ProQinase selectivity panel; settings: Compound concentration 1.0 uM
[39] = molecular target: Beta-1 adrenergic receptor (Homo sapiens) (UniProt P08588); settings: Compound concentration 10.0 uM
[40] = molecular target: Testis-specific serine/threonine-protein kinase 1 (Homo sapiens) (UniProt Q9BXA7); test: TSSK1 ProQinase selectivity panel; settings: Compound concentration 1.0 uM
[41] = test system: Fibroblast growth factor receptor 3 (Homo sapiens), P22607 [K650E]; test: FGF-R3 K650E ProQinase selectivity panel; settings: Compound concentration 1.0 uM
[42] = test system: RAF proto-oncogene serine/threonine-protein kinase (Homo sapiens), P04049 [Y340D,Y341D]; test: RAF1 Y340D/Y341D ProQinase selectivity panel; settings: Compound concentration 1.0 uM
[43] = molecular target: RAC-gamma serine/threonine-protein kinase (Homo sapiens) (UniProt Q9Y243); test: AKT3 ProQinase selectivity panel; settings: Compound concentration 1.0 uM
[44] = molecular target: 5-hydroxytryptamine receptor 1D (Homo sapiens) (UniProt P28221); settings: Compound concentration 10.0 uM
[45] = molecular target: NUAK family SNF1-like kinase 2 (Homo sapiens) (UniProt Q9H093); test: SNARK ProQinase selectivity panel; settings: Compound concentration 1.0 uM
[46] = molecular target: Protein kinase C alpha type (Homo sapiens) (UniProt P17252); test: PKC-alpha ProQinase selectivity panel; settings: Compound concentration 1.0 uM
[47] = molecular target: Receptor tyrosine-protein kinase erbB-4 (Homo sapiens) (UniProt Q15303); test: ERBB4 ProQinase selectivity panel; settings: Compound concentration 1.0 uM
[48] = molecular target: cGMP-dependent protein kinase 2 (Homo sapiens) (UniProt Q13237); test: PRKG2 ProQinase selectivity panel; settings: Compound concentration 1.0 uM
[49] = molecular target: Serine/threonine-protein kinase PLK1 (Homo sapiens) (UniProt P53350); test: PLK1 ProQinase selectivity panel; settings: Compound concentration 1.0 uM

Calcium/calmodulin-dependent protein kinase type IV (Homo sapiens), sequence (Q16566 whole entry): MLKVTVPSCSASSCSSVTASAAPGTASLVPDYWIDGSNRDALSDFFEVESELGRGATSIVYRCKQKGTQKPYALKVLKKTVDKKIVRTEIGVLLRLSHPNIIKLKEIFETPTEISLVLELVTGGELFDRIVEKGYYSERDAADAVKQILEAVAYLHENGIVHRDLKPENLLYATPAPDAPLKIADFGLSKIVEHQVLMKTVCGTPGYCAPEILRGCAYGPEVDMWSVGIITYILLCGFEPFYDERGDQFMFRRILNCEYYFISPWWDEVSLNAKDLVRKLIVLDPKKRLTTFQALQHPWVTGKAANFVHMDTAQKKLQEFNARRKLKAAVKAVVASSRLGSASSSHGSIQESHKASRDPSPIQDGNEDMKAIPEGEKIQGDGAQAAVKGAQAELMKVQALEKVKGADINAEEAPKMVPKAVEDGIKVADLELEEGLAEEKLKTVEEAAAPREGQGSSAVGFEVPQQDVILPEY
RAC-gamma serine/threonine-protein kinase (Homo sapiens), sequence (Q9Y243 whole entry): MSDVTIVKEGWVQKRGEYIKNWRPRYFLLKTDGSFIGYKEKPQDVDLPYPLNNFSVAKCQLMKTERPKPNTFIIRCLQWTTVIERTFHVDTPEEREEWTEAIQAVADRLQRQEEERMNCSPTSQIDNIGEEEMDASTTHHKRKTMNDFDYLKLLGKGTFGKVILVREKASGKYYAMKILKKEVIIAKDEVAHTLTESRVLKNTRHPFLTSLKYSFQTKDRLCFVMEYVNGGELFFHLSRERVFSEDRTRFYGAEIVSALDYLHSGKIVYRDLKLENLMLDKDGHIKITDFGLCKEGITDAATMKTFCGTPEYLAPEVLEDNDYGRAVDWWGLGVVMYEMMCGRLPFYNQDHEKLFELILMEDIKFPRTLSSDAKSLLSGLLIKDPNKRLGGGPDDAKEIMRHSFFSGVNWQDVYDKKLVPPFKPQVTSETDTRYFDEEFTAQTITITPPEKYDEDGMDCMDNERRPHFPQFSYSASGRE
5-hydroxytryptamine receptor 1D (Homo sapiens), sequence (P28221 whole entry): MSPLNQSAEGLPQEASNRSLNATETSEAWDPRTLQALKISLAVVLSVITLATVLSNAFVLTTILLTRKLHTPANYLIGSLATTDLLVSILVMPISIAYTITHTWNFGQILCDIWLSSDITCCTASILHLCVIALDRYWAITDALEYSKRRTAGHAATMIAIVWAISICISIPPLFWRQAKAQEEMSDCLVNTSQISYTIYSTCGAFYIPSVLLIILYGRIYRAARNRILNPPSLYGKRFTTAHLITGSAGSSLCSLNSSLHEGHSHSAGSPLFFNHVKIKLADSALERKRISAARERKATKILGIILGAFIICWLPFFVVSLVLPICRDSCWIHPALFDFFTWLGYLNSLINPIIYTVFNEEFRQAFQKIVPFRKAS
5-hydroxytryptamine receptor 2C (Homo sapiens), sequence (P28335 whole entry): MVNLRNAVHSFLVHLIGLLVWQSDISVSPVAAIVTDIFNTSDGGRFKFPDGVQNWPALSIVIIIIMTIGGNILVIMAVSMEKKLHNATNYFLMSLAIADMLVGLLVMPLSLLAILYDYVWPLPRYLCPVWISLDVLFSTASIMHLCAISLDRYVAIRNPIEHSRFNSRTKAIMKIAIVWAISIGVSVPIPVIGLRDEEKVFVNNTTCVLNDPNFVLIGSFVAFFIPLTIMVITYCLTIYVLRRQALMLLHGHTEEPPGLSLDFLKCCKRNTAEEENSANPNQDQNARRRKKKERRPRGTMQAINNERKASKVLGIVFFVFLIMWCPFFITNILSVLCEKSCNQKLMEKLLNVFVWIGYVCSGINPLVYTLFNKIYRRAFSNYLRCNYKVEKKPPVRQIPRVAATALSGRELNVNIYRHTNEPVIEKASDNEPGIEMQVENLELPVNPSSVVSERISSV
D(1A) dopamine receptor (Homo sapiens), sequence (P21728 whole entry): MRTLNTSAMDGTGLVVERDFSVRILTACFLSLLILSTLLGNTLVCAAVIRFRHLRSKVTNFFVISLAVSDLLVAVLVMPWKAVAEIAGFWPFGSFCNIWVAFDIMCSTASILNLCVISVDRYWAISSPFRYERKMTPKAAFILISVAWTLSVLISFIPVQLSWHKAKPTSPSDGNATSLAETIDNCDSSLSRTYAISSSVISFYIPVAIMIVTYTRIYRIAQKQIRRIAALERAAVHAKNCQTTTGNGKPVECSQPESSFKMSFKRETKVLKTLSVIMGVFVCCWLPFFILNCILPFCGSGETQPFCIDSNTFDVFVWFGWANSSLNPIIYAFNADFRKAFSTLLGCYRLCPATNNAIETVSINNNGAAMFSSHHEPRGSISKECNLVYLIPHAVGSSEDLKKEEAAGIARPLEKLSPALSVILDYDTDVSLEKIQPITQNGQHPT
Serine/threonine-protein kinase DCLK2 (Homo sapiens), sequence (Q8N568 whole entry): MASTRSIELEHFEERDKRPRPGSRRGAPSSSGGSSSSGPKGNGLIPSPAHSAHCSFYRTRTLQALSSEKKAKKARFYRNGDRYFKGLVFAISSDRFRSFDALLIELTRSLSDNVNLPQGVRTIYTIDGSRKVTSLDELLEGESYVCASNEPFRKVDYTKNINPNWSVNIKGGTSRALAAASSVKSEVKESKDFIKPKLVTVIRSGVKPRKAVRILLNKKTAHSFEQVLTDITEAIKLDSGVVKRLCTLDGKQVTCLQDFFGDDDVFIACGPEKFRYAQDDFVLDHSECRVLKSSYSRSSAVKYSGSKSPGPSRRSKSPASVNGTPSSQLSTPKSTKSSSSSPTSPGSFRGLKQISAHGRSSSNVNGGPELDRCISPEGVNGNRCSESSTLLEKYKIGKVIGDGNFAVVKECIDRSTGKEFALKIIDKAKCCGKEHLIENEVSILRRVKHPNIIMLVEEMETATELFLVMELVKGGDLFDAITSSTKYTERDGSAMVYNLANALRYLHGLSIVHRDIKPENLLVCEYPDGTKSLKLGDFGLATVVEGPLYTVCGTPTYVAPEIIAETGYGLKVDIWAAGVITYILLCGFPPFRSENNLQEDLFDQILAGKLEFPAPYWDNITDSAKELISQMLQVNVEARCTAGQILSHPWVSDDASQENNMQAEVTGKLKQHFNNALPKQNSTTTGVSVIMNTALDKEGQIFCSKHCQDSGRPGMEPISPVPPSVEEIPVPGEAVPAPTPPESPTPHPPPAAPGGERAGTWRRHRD
cGMP-dependent protein kinase 2 (Homo sapiens), sequence (Q13237 whole entry): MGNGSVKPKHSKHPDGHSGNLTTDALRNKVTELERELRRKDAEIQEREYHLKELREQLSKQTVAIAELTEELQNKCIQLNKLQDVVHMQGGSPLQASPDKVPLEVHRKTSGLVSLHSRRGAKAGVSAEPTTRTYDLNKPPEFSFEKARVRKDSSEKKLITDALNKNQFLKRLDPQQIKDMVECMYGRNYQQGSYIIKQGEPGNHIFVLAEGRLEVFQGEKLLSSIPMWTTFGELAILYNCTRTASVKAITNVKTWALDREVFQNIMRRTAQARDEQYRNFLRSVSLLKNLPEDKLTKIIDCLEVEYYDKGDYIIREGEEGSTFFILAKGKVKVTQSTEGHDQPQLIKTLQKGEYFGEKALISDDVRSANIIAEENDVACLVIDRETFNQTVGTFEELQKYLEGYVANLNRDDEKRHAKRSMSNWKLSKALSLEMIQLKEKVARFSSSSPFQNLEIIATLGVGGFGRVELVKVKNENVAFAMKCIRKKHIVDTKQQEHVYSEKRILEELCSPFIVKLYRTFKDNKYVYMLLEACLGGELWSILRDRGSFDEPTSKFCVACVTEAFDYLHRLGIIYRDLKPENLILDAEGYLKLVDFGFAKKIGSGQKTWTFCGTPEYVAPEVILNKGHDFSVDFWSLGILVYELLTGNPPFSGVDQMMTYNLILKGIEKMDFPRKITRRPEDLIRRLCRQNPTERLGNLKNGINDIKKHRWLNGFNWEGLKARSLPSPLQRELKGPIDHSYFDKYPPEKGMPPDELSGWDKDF
Aurora kinase C (Homo sapiens), sequence (Q9UQB9 whole entry): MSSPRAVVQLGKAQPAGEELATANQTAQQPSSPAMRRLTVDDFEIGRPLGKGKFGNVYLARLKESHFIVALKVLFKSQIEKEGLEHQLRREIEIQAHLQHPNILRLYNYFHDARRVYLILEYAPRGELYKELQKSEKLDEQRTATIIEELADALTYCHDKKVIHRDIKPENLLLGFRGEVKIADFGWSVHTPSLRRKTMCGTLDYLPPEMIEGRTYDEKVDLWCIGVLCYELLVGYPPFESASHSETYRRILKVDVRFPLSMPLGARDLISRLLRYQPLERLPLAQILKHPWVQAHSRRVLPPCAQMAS
Heat shock protein beta-1, sequence (P04792 whole entry): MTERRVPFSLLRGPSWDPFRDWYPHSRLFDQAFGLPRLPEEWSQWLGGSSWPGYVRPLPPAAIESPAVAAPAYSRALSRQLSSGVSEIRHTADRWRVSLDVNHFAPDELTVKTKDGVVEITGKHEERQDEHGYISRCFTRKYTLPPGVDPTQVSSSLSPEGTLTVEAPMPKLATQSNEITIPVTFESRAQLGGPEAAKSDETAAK

## O=C1c2ccc(Nc3ccc(F)cc3F)cc2CCc2ccc(OC[C@H](O)CO)cc21 [Skepinone-L]
[1]
  % Residual activity with Skepinone-L: 43%
[2]
  % Residual activity with Skepinone-L: 82%
[3]
  % Residual activity with Skepinone-L: 101%
[4]
  % Residual activity with Skepinone-L: 111%
[5]
  % Residual activity with Skepinone-L: 96%
[6]
  % Residual activity with Skepinone-L: 87%
[7]
  % Residual activity with Skepinone-L: 91%
[8]
  IC50: 25 nM (active)
[9]
  inhibition: 24%
[10]
  % Residual activity with Skepinone-L: 111%
[11]
  % Residual activity with Skepinone-L: 106%
[12]
  % Residual activity with Skepinone-L: 100%
[13]
  % Residual activity with Skepinone-L: 101%
[14]
  % Residual activity with Skepinone-L: 96%
[15]
  % Residual activity with Skepinone-L: 88%
[16]
  % Residual activity with Skepinone-L: 88%
[17]
  % Residual activity with Skepinone-L: 93%
[18]
  % Residual activity with Skepinone-L: 82%
[19]
  % Residual activity with Skepinone-L: 84%
[20]
  % Residual activity with Skepinone-L: 105%
[21]
  % Residual activity with Skepinone-L: 88%
[22]
  % Residual activity with Skepinone-L: 125%
[23]
  inhibition: 5.83%
[24]
  % Residual activity with Skepinone-L: 97%
[25]
  % Residual activity with Skepinone-L: 85%
[26]
  % Residual activity with Skepinone-L: 106%
[27]
  % Residual activity with Skepinone-L: 95%
[28]
  % Residual activity with Skepinone-L: 96%
[29]
  % Residual activity with Skepinone-L: 102%
[30]
  % Residual activity with Skepinone-L: 87%
[31]
  % Residual activity with Skepinone-L: 101%
[32]
  % Residual activity with Skepinone-L: 82%
[33]
  % Residual activity with Skepinone-L: 81%
[34]
  % Residual activity with Skepinone-L: 94%
[35]
  % Residual activity with Skepinone-L: 106%
[36]
  % Residual activity with Skepinone-L: 83%
[37]
  % Residual activity with Skepinone-L: 62%
[38]
  % Residual activity with Skepinone-L: 83%
[39]
  inhibition: 30.4%
[40]
  % Residual activity with Skepinone-L: 90%
[41]
  % Residual activity with Skepinone-L: 99%
[42]
  % Residual activity with Skepinone-L: 91%
[43]
  % Residual activity with Skepinone-L: 94%
[44]
  inhibition: 23.8%
[45]
  % Residual activity with Skepinone-L: 115%
[46]
  % Residual activity with Skepinone-L: 96%
[47]
  % Residual activity with Skepinone-L: 106%
[48]
  % Residual activity with Skepinone-L: 94%
[49]
  % Residual activity with Skepinone-L: 97%
